Data: publication PMC11601558, “SLC6A19 inhibition facilitates urinary neutral amino acid excretion and lowers plasma phenylalanine” (JCI Insight, 2024)
“And” between values parts separate entries of the source, which are not always exact repeats. Equal values may be shown once.

Tested on: Pah^enu2 mice
Assay: Plasma Phe in Pah^enu2 mice on defined amino acid diets (0.75%, 0.45%, 0.225% Phe)
Assay type: in vivo, mouse
Design: plasma Phe: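 plasma Phe concentration in µM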
Settings: for mean plasma Phe lower than vehicle / plasma Phe, mean ± SD: 200 mg/kg, 3 hours after dose; for plasma Phe: Fig 3e, Pah^enu2 mice on defined diet, individual animals
Procedure: To modulate baseline plasma Phe levels, 8–13-week-old male Pah^enu2 mice were maintained on isocaloric amino acid–defined diets with either 7.5 g/kg (0.75%, Teklad T.2018.15), 4.5 g/kg (0.45%, Teklad custom formulation), or 2.25 g/kg (0.225%, Teklad custom formulation) L-Phe for 2 weeks before a single dose administration of 200 mg/kg JN-170 or vehicle. Animals had unrestricted access to food and water throughout the study. Serial plasma samples were taken predose as well as 1, 3, 8, 24 and 48 hours after the dose. For all studies, mice were dosed at 7:00 a.m. ± 30 minutes to synchronize with circadian rhythm.
Plasma sample analyses were carried out by liquid chromatography tandem mass spectrometry (LC-MS/MS). Plasma samples were mixed 1:1 with carbamazepine or ^13C6-Phe as internal standards for JN-170 and Phe, respectively. Plasma proteins were precipitated by adding 4 volumes of acetonitrile (ACN) and 0.1% formic acid (FA) followed by centrifugation for 5 minutes at 2,100g. Supernatants were diluted 1:1 in ACN and 0.1% FA. For JN-170, a Waters HSS T3 reversed phase column was used for separation using a binary gradient of 0.1% FA in water (mobile phase A) to 0.1% in ACN (mobile phase B). At a flow rate of 0.8 mL/min, the mobile phase gradient increased from an initial 25% phase B to 95% phase B over 30 seconds. After, 1.5 minutes, the gradient was returned to 25% mobile phase B. For detection of Phe, an Acquity UPLC ethylene bridged hybrid (BEH) amide column was used, with a binary gradient of 10 mM ammonium acetate in 95:5:1 H2O:ACN:FA (mobile phase A) to 10 mM ammonium acetate in 95:5:1 ACN:H2O:FA (mobile phase B). At a flow rate of 0.5 mL/min, the mobile phase gradient changed from an initial 100% phase B to 50% phase B over 2.1 minutes. It was returned to 100% phase B after 4 minutes. Analytes were detected using a Sciex API-5500 in multiple reaction monitoring mode using an electrospray ionization source in the positive ion mode with the following ion transitions: m/z 435.2/84.1 (JN-170), 237.1/194.1 (carbamazepine), 166.1/120.1 (Phe), 172.2/126.2 for (^13C6-Phe). Analyte concentrations were calculated with a 1/×^2 linear regression over a concentration range of 1 or 2 to 5,000 ng/mL for JN-170 and 0.05–100 ng/mL for Phe.

N#Cc1ccc(-c2noc([C@]3(C(F)(F)F)CCN(C(=O)NCCC4(N)CC4)C3)n2)cc1 [JN-170]
mean plasma Phe lower than vehicle (0.225% Phe diet): 47% | plasma Phe, mean ± SD (0.225% Phe diet): 309 ± 108 µM | mean plasma Phe lower than vehicle (0.45% Phe diet): 61% | plasma Phe, mean ± SD (0.45% Phe diet): 416 ± 117 µM | mean plasma Phe lower than vehicle (0.75% Phe diet): 59% | plasma Phe, mean ± SD (0.75% Phe diet): 621 ± 141 µM | plasma Phe (time 0 h): 2027 and 2042 and 2474 and 2301 and 2768 and 2728 and 2723 and 1767 and 1191 and 962 and 924 and 848 and 1013 and 971 and 1061 and 1569 and 1364 and 1314 | plasma Phe (time 1 h): 884 and 990 and 803 and 886 and 865 and 914 and 675 and 1252 and 589 and 1292 and 1010 and 927 and 813 and 907 and 727 and 787 and 898 and 1296 and 942 and 978 | plasma Phe (time 3 h): 973 and 455 and 892 and 697 and 736 and 559 and 671 and 509 and 763 and 495 and 635 and 669 and 535 and 654 and 529 and 586 and 485 and 516 and 441 and 769 and 511 and 574 | plasma Phe (time 8 h): 938 and 505 and 720 and 502 and 600 and 578 and 665 and 577 and 945 and 657 and 745 and 672 and 637 and 621 and 611 and 518 and 376 and 392 and 476 (2×) and 629 | plasma Phe (time 24 h): 1767 and 1553 and 1370 and 1402 and 1592 and 597 and 1045 and 1827 and 1448 and 1043 and 988 and 1535 and 1388 and 1336 and 1203 and 1339 and 1578 and 871 and 1063
